Assay results as given in US8003658B2, “Quinazoline derivatives for inhibiting cancer cell growth and method for the preparation thereof” (Hanmi Holdings Co., Ltd., priority 2004, dated 2011).
Like-named read-outs stand apart in the source and are kept apart here.

Experiments:
A431 (ATCC: CRL-1555) = test: Test of cancer cell growth inhibition (SRB), A431; conditions: read-out: IC50 A431
SK-Br3 (ATCC: HTB-30) = test: Test of cancer cell growth inhibition (SRB), SK-Br3; conditions: read-out: IC50 SK-Br-3
[1] = biological target: EGFR (EGFR type 1 kinase) (Homo sapiens, UniProt P00533); test: Inhibition of EGFR enzyme (fluorescence polarization kinase assay)
Protocol: 10 μl of EGFR (EGFR type 1 kinase) was added to each well of a 96-well microplate.
SW-620 (ATCC: CCL-227) = test: Test of cancer cell growth inhibition (SRB), SW-620; conditions: read-out: IC50 SW-620
[2] = EGFR overexpressed A431, 72 hours, SRB
[3] = Erb-B2 overexpressed SK-Br3, 72 hours, SRB

Chain of EGFR (EGFR type 1 kinase) (P00533 25-1210, species assumed): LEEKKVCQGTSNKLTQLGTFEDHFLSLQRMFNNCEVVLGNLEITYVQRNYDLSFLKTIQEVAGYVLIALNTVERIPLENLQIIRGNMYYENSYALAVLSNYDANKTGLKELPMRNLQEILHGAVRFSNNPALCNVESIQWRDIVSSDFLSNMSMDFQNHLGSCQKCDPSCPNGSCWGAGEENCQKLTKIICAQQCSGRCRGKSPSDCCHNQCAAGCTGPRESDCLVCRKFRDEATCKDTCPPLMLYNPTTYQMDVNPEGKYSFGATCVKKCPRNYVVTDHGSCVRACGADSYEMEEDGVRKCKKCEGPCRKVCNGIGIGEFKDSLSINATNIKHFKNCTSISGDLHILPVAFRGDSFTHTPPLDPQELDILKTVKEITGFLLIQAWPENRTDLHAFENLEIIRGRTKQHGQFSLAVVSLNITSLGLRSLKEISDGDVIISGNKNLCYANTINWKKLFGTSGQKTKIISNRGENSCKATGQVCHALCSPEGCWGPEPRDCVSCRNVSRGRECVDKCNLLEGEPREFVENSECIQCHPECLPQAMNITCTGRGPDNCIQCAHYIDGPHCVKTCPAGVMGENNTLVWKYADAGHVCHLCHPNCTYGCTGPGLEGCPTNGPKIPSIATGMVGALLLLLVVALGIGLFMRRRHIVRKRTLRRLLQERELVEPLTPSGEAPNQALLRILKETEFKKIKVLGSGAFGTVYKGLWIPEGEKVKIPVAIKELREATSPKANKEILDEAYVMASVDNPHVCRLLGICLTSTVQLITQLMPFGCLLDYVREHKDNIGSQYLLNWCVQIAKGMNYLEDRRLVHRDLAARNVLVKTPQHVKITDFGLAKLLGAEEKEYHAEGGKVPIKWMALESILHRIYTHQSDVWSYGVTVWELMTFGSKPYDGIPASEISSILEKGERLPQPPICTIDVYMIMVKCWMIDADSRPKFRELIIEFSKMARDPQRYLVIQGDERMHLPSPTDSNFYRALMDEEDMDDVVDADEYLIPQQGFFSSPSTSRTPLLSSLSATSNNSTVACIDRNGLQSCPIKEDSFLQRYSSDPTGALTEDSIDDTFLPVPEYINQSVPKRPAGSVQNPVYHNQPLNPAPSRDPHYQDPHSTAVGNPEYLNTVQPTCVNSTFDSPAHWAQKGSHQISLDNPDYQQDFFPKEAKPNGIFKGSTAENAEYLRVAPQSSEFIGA

IC50 (A431 (ATCC: CRL-1555); Homo sapiens, A-431, 72 h) [nM] | IC50 (SK-Br3 (ATCC: HTB-30); Homo sapiens, SK-BR-3, 72 h) [nM] | IC50 [1] [nM] | IC50 (SW-620 (ATCC: CCL-227); Homo sapiens, SW-620, 72 h) [nM] | IC50 (A431 (ATCC: CRL-1555); [2]) [nM] | IC50 (SK-Br3 (ATCC: HTB-30); [3]) [nM] | IC50 (SW-620 (ATCC: CCL-227); SW-620 not having overexpressed EGFR and Erb-B2, 72 hours, SRB) [nM] | Structure (SMILES) | IC50 ([1]; read-out: IC50 EGFR, Poly (Glu, Tyr) 4:1 and ATP, 1 hour room temperature, FP readout) [nM]
948 | 151 | 30 | – | – | – | – | COCC(=O)NCCC(=O)Nc1ccc2ncnc(Nc3ccc(OCc4cccc(F)c4)c(Cl)c3)c2c1 [Example 20-2, N-{4-[3-chloro-4-(3-fluoro-benzyloxy)-phenylamino]-quinazolin-6-yl}-3-(2-methoxy-acetylamino)-propionamide] | –
65 | 3 | – | > 10000 | – | – | – | C=CC(=O)NCCC(=O)Nc1ccc2ncnc(Nc3cncn3Cc3ccccc3)c2c1 [Example 79, N-{2-[4-(1-benzyl-1H-imidazol-5-ylamino)-quinazolin-6-ylcarbamoyl]-ethyl}-acrylamide] | –
12 | 3 | – | > 10000 | – | – | – | C=CC(=O)NCCC(=O)Nc1cc2c(Nc3ccc(OCc4cccc(F)c4)c(Cl)c3)ncnc2cc1OCCCN1CCOCC1 [Example 85-2, N-{2-[4-[3-chloro-4-(3-fluoro-benzyloxy)phenylamino]-7-(3-morpholin-4-yl-propoxy)-quinazolin-6-ylcarbamoyl]-ethyl}-acrylamide] | –
95 | 35 | – | > 10000 | – | – | – | COCC(=O)NCCCC(=O)Nc1ccc2ncnc(Nc3ccc(OCc4cccc(F)c4)c(Cl)c3)c2c1 [Example 87-2, N-{4-[3-chloro-4-(3-fluoro-benzyloxy)-phenylamino]-quinazolin-6-yl}-4-(2-methoxy-acetylamino)-butyramide] | –
173 | 19 | – | > 10000 | – | – | – | C=CC(=O)NCCCC(=O)Nc1ccc2ncnc(Nc3ccc(OCc4cccc(F)c4)c(Cl)c3)c2c1 [Example 89, 4-acryloylamino-N-{4-[3-chloro-4-(3-fluoro-benzyloxy)-phenylamino]-quinazolin-6-yl}-butyramide] | –
324 | 33 | – | > 10000 | – | – | – | N#CCC(=O)NCCCC(=O)Nc1ccc2ncnc(Nc3ccc(OCc4cccc(F)c4)c(Cl)c3)c2c1 [Example 93, N-{4-[3-chloro-4-(3-fluoro-benzyloxy)-phenylamino]-quinazolin-6-yl}-4-(2-cyano-acetylamino)-butyramide] | –
786 | 21 | – | > 10000 | – | – | – | C=CC(=O)NCCCC(=O)Nc1ccc2ncnc(Nc3ccc(Oc4ccc(C)nc4)c(C)c3)c2c1 [Example 101, 4-acryloylamino-N-{4-[3-methyl-4-(6-methyl-pyridin-3-yloxy)-phenylamino]-quinazolin-6-yl}-butyramide] | –
345 | 80 | – | > 10000 | – | – | – | O=C(CCl)NCCCC(=O)Nc1ccc2ncnc(Nc3ccc(OCc4cccc(F)c4)c(Cl)c3)c2c1 [Example 102, 4-(2-chloro-acetylamino)-N-{4-[3-chloro-4-(3-fluoro-benzyloxy)-phenylamino]-quinazolin-6-yl}-butyramide] | –
227 | 42 | – | > 10000 | – | – | – | O=C(CN1CCOCC1)NCCCC(=O)Nc1ccc2ncnc(Nc3ccc(OCc4cccc(F)c4)c(Cl)c3)c2c1 [Example 103, N-{4-[3-chloro-4-(3-fluoro-benzyloxy)-phenylamino]-quinazolin-6-yl}-4-(2-morpholin-4-yl-acetylamino)-butyramide] | –
254 | 22 | – | > 10000 | – | – | – | CN(C)CC(=O)NCCCC(=O)Nc1ccc2ncnc(Nc3ccc(OCc4cccc(F)c4)c(Cl)c3)c2c1 [Example 104, N-{4-[3-chloro-4-(3-fluoro-benzyloxy)-phenylamino]-quinazolin-6-yl}-4-(2-dimethylamino-acetylamino)-butyramide] | –
117 | 38 | – | > 10000 | – | – | – | COCC(=O)NCCCCC(=O)Nc1ccc2ncnc(Nc3ccc(OCc4cccc(F)c4)c(Cl)c3)c2c1 [Example 115-2, 5-(2-methoxy-acetylamino)-pentanoic acid {4-[3-chloro-4-(3-fluoro-benzyloxy)-phenylamino]-quinazolin-6-yl}-amide] | –
– | – | – | – | 336 | 40 | > 10000 | CSCC(=O)NCCC(=O)Nc1ccc2ncnc(Nc3ccc(OCc4cccc(F)c4)c(Cl)c3)c2c1 [Example 117, N-{4-[3-chloro-4-(3-fluoro-benzyloxy)-phenylamino]-quinazolin-6-yl}-3-(2-methanesulfanyl-acetylamino)-propionamide] | –
240 | 36 | – | > 10000 | – | – | – | CCNC(=O)NCCC(=O)Nc1ccc2ncnc(Nc3ccc(OCc4cccc(F)c4)c(Cl)c3)c2c1 [Example 123, N-{4-[3-chloro-4-(3-fluoro-benzyloxy)-phenylamino]-quinazolin-6-yl}-3-(3-ethyl-ureido)-propionamide] | –
37 | 3 | 4 | – | – | – | – | C=CC(=O)NCCC(=O)Nc1ccc2ncnc(Nc3ccc(OCc4ccccn4)c(Cl)c3)c2c1 [Example 131, N-(2-{4-[3-chloro-4-(pyridin-2-ylmethoxy)-phenylamino]-quinazolin-6-ylcarbamoyl}-ethyl)-acrylamide] | –
69 | 47 | 5 | – | – | – | – | C=CC(=O)NCCC(=O)N(C)c1ccc2ncnc(Nc3ccc(OCc4cccc(F)c4)c(Cl)c3)c2c1 [Example 139-5, N-[2-({4-[3-chloro-4-(3-fluoro-benzyloxy)-phenylamino]-quinazolin-6-yl}-methyl-carbamoyl)-ethyl]-acrylamide] | –
19 | 4 | 2 | – | – | – | – | C=CC(=O)N(C)CCC(=O)Nc1ccc2ncnc(Nc3ccc(OCc4cccc(F)c4)c(Cl)c3)c2c1 [Example 142-2, N-(2-{4-[3-chloro-4-(3-fluoro-benzyloxy)-phenylamino]-quinazolin-6-ylcarbamoyl}-ethyl)-N-methyl-acrylamide] | –
10 | 2 | 1 | – | – | – | – | C=CC(=O)N(C)CCC(=O)Nc1ccc2ncnc(Nc3ccc(OCc4ccccn4)c(Cl)c3)c2c1 [Example 143, N-(2-{4-[3-chloro-4-(pyridin-2-ylmethoxy)-phenylamino]-quinazolin-6-ylcarbamoyl}-ethyl)-N-methyl-acrylamide] | –
– | 25 | 4 | – | 32 | – | – | C=CC(=O)N1CCC[C@H]1C(=O)Nc1ccc2ncnc(Nc3ccc(OCc4ccccn4)c(Cl)c3)c2c1 [Example 145, (2S)-1-acryloyl-pyrrolidine-2-carboxylic acid {4-[3-chloro-4-(pyridin-2-ylmethoxy)-phenylamino]-quinazolin-6-yl}-amide] | –
21 | 19 | 2 | – | – | – | – | C=CC(=O)N1CCC[C@H]1C(=O)Nc1ccc2ncnc(Nc3ccc(OCc4cccc(C)n4)c(Cl)c3)c2c1 [Example 147, (2S)-1-acryloyl-pyrrolidine-2-carboxylic acid {4-[3-chloro-4-(6-methyl-pyridin-2-ylmethoxy)-phenylamino]-quinazolin-6-yl}-amide] | –
– | – | 3 | – | 27 | 3 | – | C=CC(=O)N1CCC[C@H]1C(=O)Nc1cc2c(Nc3ccc(OCc4ccccn4)c(Cl)c3)ncnc2cc1OC [Example 166, (2S)-1-acryloyl-pyrrolidine-2-carboxylic acid {4-[3-chloro-4-(pyridin-2-ylmethoxy)-phenylamino]-7-methoxy-quinazolin-6-yl}-amide] | –
17 | 4 | 2 | – | – | – | – | C=CC(=O)NCCC(=O)Nc1cc2c(Nc3ccc(OCc4ccccn4)c(Cl)c3)ncnc2cc1OC [Example 167, N-(2-{4-[3-chloro-4-(pyridin-2-ylmethoxy)-phenylamino]-7-methoxy-quinazolin-6-ylcarbamoyl}-ethyl)-acrylamide] | –
50 | 3 | 4 | – | – | – | – | C=CC(=O)NCCC(=O)Nc1cc2c(Nc3ccc(OCc4ccccn4)c(C)c3)ncnc2cc1F [Example 178, N-(2-{7-fluoro-4-[3-methyl-4-(pyridin-2-ylmethoxy)-phenylamino]-quinazolin-6-ylcarbamoyl}-ethyl)-acrylamide] | –
9 | 2 | 1 | – | – | – | – | C=CC(=O)N[C@H](C)C(=O)Nc1cc2c(Nc3ccc(OCc4ccccn4)c(Cl)c3)ncnc2cc1OC [Example 189, (1R)—N-(1-{4-[3-chloro-4-(pyridin-2-ylmethoxy)-phenylamino]-7-methoxy-quinazolin-6-ylcarbamoyl}-ethyl)-acrylamide] | –
13 | 6 | 2 | – | – | – | – | C=CC(=O)N[C@@H](C)C(=O)Nc1cc2c(Nc3ccc(OCc4ccccn4)c(Cl)c3)ncnc2cc1OC [Example 190, (1S)—N-(1-{4-[3-chloro-4-(pyridin-2-ylmethoxy)-phenylamino]-7-methoxy-quinazolin-6-ylcarbamoyl}-ethyl)-acrylamide] | –
59 | 891 | – | > 10000 | – | – | – | C#Cc1cccc(Nc2ncnc3cc(OCCOC)c(OCCOC)cc23)c1 [Tarceva, reference compound] | –

Structure (SMILES) | IC50 (A431 (ATCC: CRL-1555); Homo sapiens, A-431, 72 h) [nM] | IC50 (SK-Br3 (ATCC: HTB-30); Homo sapiens, SK-BR-3, 72 h) [nM] | IC50 [1] [nM] | IC50 (SW-620 (ATCC: CCL-227); Homo sapiens, SW-620, 72 h) [nM] | IC50 (A431 (ATCC: CRL-1555); [2]) [nM] | IC50 (SK-Br3 (ATCC: HTB-30); [3]) [nM] | IC50 (SW-620 (ATCC: CCL-227); SW-620 not having overexpressed EGFR and Erb-B2, 72 hours, SRB) [nM] | IC50 ([1]; read-out: IC50 EGFR, Poly (Glu, Tyr) 4:1 and ATP, 1 hour room temperature, FP readout) [nM]
CC#CC(=O)N1CCC[C@H]1C(=O)Nc1cc2c(Nc3ccc(OCc4ccccn4)c(Cl)c3)ncnc2cc1OC [Example 146, (2S)-1-(1-oxo-butyn-2-yl)-pyrrolidine-2-carboxylic acid {4-[3-chloro-4-(pyridin-2-ylmethoxy)-phenylamino]-7-methoxy-quinazolin-6-yl}-amide] | – | – | – | – | 32 | 40 | – | 4
